Laboratory results taken from patent publication US6054115A, “Hydroxymethyl phosphine compounds for use as diagnostic and therapeutic pharmaceuticals and method of making same” (priority 1998, dated 2000).

Tests used:
[1] = Oxidative stability of HMPE and HMPB in air and aqueous solution; format: physicochemical; settings: air and aqueous solutions
[2] = In vitro stability of Re complexes to cysteine challenge, 31P NMR; format: physicochemical; settings: for ligand exchange or complex decomposition: 1 M cysteine, 25° C, ~0.01 M complex
Procedure: Appropriate sample sizes of complexes 8, 9, and 10 were dissolved in 10 mL of deionized water to afford solution concentrations of ~0.01 M. To these solutions was added 15 mL of a 1.0 M cysteine solution also in water. The solutions were allowed to stir at room temperature overnight. The reaction progress for potential ligand displacement was monitored by ^31 P NMR spectroscopy at various timepoints over a twenty-four hour study period.
In order to determine the in vitro stability of the rhenium S2 P2 complexes 8, 9, and 10, the solutions of each were allowed to incubate at 25° C. in an aqueous solution of cysteine.

| Compound | oxidative stability [1] | ligand exchange or complex decomposition [2] | stability profile (kinetic inertness) ([2]; 1.0 M cysteine, 24 hours) |
| --- | --- | --- | --- |
| OCP(CO)c1ccccc1P(CO)CO [HMPB, (HOH2 C)2 PC6 H4 P(CH2 OH)2] | oxidatively stable in air and also in aqueous solutions |  |  |
| OCP(CO)CCP(CO)CO [HMPE, (HOH2 C)2 PCH2 CH2 P(CH2 OH)2] | oxidatively stable in air and also in aqueous solutions |  |  |
| [ReO2 (HOH2 C)2 P(CH2)2 S(CH2)3 S(CH2)2 P(CH2 OH)2 ]2 Cl2 [Compound 8] |  | no observable ligand exchange or complex decomposition |  |
| [ReO2 (HOH2 C)2 P(CH2)2 S(CH2)4 S(CH2)2 P(CH2 OH2 ]2 (ReO4^-)2 [Compound 9] |  | no observable ligand exchange or complex decomposition |  |
| [ReO2 (HOH2 C)2 P(CH2)3 S(CH2)3 S(CH2)3 P(CH2 OH)2 ]Cl [Compound 10] |  | no observable ligand exchange or complex decomposition | unusual kinetic inertness |
